Measurements: ChEMBL document CHEMBL1201862, “PubChem BioAssay data set” (2004)
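These data come from cells grown in 96-well plates and exposed to compound for 48 hours at five concentrations. At the GI50, growth is halved.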 Active and inactive are the calls of the source. No stated cut-off is given here; in the data, active = GI50 up to about 1.1 µM and inactive = higher.

How the values were obtained:
Assay in all cases: NCI anticancer screen, dose series, 48 h
COLO 205 = system: COLO 205
NCI-H460 = system: NCI-H460
UO-31 = system: UO-31
SNB-19 = system: SNB-19
SK-MEL-5 = system: SK-MEL-5
MOLT-4 = system: MOLT-4
T47D = system: T47D
RXF 393 = system: RXF 393
HCC 2998 = system: HCC 2998
RPMI-8226 = system: RPMI-8226
OVCAR-5 = system: OVCAR-5
HT-29 = system: HT-29
IGROV-1 = system: IGROV-1
NCI/ADR-RES = system: NCI/ADR-RES
LOX IMVI = system: LOX IMVI
K562 = system: K562
SN12C = system: SN12C
OVCAR-4 = system: OVCAR-4
PC-3 = system: PC-3
SW-620 = system: SW-620

Measured: GI50

Clc1ccc(-c2c(C3=NCCCN3)nnn2-c2ccc(Cl)cc2)cc1
inactive: COLO 205 16.6 µM | NCI-H460 40.9 µM | UO-31 39.1 µM | SNB-19 > 68.7 µM | SK-MEL-5 17.7 µM | MOLT-4 27.4 µM | T47D 31.3 µM | RXF 393 17.7 µM | HCC 2998 18.2 µM | RPMI-8226 31.4 µM | OVCAR-5 35.3 µM | HT-29 21.3 µM | IGROV-1 56 µM | NCI/ADR-RES > 50.6 µM | LOX IMVI 21.1 µM | K562 20.9 µM | SN12C 64 µM | OVCAR-4 > 65.2 µM | PC-3 31.1 µM | SW-620 49.8 µM

CC1(C)OC2[C@@H](CO[C@@]3([C@H]4OC(C)(C)O[C@@H]4CO)OC(C)(C)O[C@@H]23)O1 (stereo not given in full)
inactive: COLO 205 > 100 µM | NCI-H460 > 100 µM | UO-31 > 100 µM | SNB-19 > 100 µM | SK-MEL-5 > 100 µM | MOLT-4 > 100 µM | T47D > 100 µM | RXF 393 > 100 µM | HCC 2998 > 100 µM | RPMI-8226 > 100 µM | OVCAR-5 > 100 µM | HT-29 > 100 µM | IGROV-1 > 100 µM | NCI/ADR-RES > 100 µM | LOX IMVI > 100 µM | K562 > 100 µM | SN12C > 100 µM | OVCAR-4 > 100 µM | PC-3 > 100 µM | SW-620 > 100 µM

Cc1ccc(S[C@@H](C)[C@@](O)(C(N)=O)c2ccccc2)cc1
inactive: COLO 205 34.4 µM | NCI-H460 85.1 µM | UO-31 15.2 µM | SNB-19 > 100 µM | SK-MEL-5 20.6 µM | MOLT-4 12.4 µM | T47D 26.7 µM | RXF 393 86.1 µM | HCC 2998 > 100 µM | RPMI-8226 21.7 µM | OVCAR-5 > 100 µM | HT-29 41.3 µM | IGROV-1 3.74 µM | NCI/ADR-RES 19.9 µM | LOX IMVI 14.7 µM | K562 15 µM | SN12C > 100 µM | OVCAR-4 21 µM | PC-3 35.4 µM | SW-620 39 µM

CC(C#N)(NO)C(C)(C#N)NO (stereo not given)
inactive: COLO 205 81.1 µM | NCI-H460 > 100 µM | UO-31 > 100 µM | SNB-19 > 100 µM | SK-MEL-5 > 100 µM | MOLT-4 > 100 µM | T47D > 100 µM | RXF 393 > 100 µM | HCC 2998 > 100 µM | RPMI-8226 > 100 µM | OVCAR-5 > 100 µM | HT-29 > 100 µM | IGROV-1 > 100 µM | NCI/ADR-RES > 100 µM | LOX IMVI > 100 µM | K562 > 100 µM | SN12C > 100 µM | OVCAR-4 > 100 µM | PC-3 > 100 µM | SW-620 > 100 µM

CCOC(=O)c1cc(C2=CCNC2=O)c(-c2cc(C)no2)[nH]1
inactive: COLO 205 54.8 µM | NCI-H460 63.4 µM | UO-31 27.7 µM | SNB-19 > 100 µM | SK-MEL-5 66.7 µM | MOLT-4 25.1 µM | T47D 30.8 µM | RXF 393 49.2 µM | HCC 2998 > 100 µM | RPMI-8226 36.7 µM | OVCAR-5 > 100 µM | HT-29 43.5 µM | IGROV-1 75.3 µM | NCI/ADR-RES 30.5 µM | LOX IMVI 86.5 µM | K562 34.8 µM | SN12C > 100 µM | OVCAR-4 49.5 µM | PC-3 55.6 µM | SW-620 80.2 µM

CCC1CN2CCc3c([nH]c4ccccc34)[C@@](C(=O)OC)(c3cc4c(cc3OC)N(C)C3C(O)(C(=O)OC)C(C(=O)OC)C5(CC)C=CCN6CCC43C65)C[C@@H](C2)[C@@H]1C(C)(C)C (stereo not given in full)
inactive: UO-31 1.47 µM | OVCAR-5 2.68 µM | NCI/ADR-RES 2.75 µM | OVCAR-4 3.15 µM
active: COLO 205 0.372 µM | NCI-H460 0.393 µM | SNB-19 0.337 µM | SK-MEL-5 0.274 µM | MOLT-4 0.479 µM | T47D 0.687 µM | RXF 393 0.285 µM | HCC 2998 0.373 µM | RPMI-8226 0.469 µM | HT-29 0.328 µM | IGROV-1 0.668 µM | LOX IMVI 0.34 µM | K562 0.334 µM | SN12C 0.607 µM | PC-3 0.286 µM | SW-620 0.33 µM

COC(=O)c1cc(C(=CCC[C@H]2CC[C@@]3(C)C(CCC4C3CC[C@@]3(C)C4CC[C@@H]3C(C)CCCC(C)C)C2)c2cc(Cl)c(O)c(C(=O)OC)c2)cc(Cl)c1O (stereo not given in full)
inactive: COLO 205 > 10 µM | NCI-H460 > 10 µM | UO-31 > 10 µM | SNB-19 > 10 µM | SK-MEL-5 > 10 µM | MOLT-4 > 10 µM | T47D > 10 µM | RXF 393 > 10 µM | HCC 2998 > 10 µM | RPMI-8226 > 10 µM | OVCAR-5 > 10 µM | HT-29 > 10 µM | IGROV-1 > 10 µM | NCI/ADR-RES > 10 µM | LOX IMVI > 10 µM | K562 > 10 µM | SN12C > 10 µM | OVCAR-4 > 10 µM | PC-3 > 10 µM | SW-620 > 10 µM
